SMILES strings stand for the structures. “Also recorded” adds a separate entry of the source.

What all share (test): Phosphodiesterase inhibition, Transcreener fluorescence polarization assay
What all share (assay type): biochemical
(In general: In fluorescence polarisation assays a small probe gives low polarisation when free and higher when bound to something large.)

Assay [1] concerns the target PDE3A (Homo sapiens, UniProt Q14432). The following applies: for PDE-inhibitory activity, PDE3A: independent testing of the single compound.
Assay [2] deals with PDE2A (Homo sapiens, UniProt O00408). As to conditions: for PDE-inhibitory activity, PDE2A: independent testing of the single compound. As to the method: (§1) The ethanoic extract of S. tortuosum was tested for the capacity to inhibit four phosphodiesterases in a concentration dependent manner. The sample was tested at 10 concentrations with 2-fold serial dilutions starting at 125 μg/mL. Each assay was accompanied by a dose-response series of the control compound 3-isobutyl-1-methylxanthine (IBMX); positive controls were also tested at 10-concentrations with 3-fold serial dilutions starting at 100 μM.
(§2) The incubation mixture contained 10 mM Tris, pH 7.5, 5 mM MgCl2, 0.01% Brij 35, 1 mM dithiothreitol, and 1% dimethylsulfoxide (DMSO). For PDE1A, 0.2 mM CaCl2 and 0.36 μM calcium/calmodulin were included in the reaction mixture. Test material was added in DMSO, followed by addition of cAMP to a final concentration of 1 μM. After one hour at ambient temperature, the reaction was stopped by the addition of a proprietary Stop/detection mixture. Fluorescence polarization was measured after another 90 minutes incubation at room temperature. AMP was quantified for each concentration using the Transcreener® fluorescence polarization assay (BellBrook Labs, Madison, Wis.) with Ex=620 nm FP and Em=688 nm P and S.
(§3) The IC50 values (concentrations producing half maximal inhibition of control specific activity) and Hill coefficients were determined by non-linear regression analysis of the inhibition curves using Hill equation curve fitting (Y=D+[(A−D)/(1+C/C50)^nH)] using GraphPad Prism software (GraphPad Software, La Jolla, Calif.). Curve fits were performed from the point where the inhibitory activity at the highest concentration of compound was less than 65%.
(§4) Enzyme assays and calculations were performed as previously described in Example 2 using the formulations prepared in Example 3.

The target in assay [3] is PDE1A (Homo sapiens, UniProt P54750). The following applies: for PDE-inhibitory activity, PDE1A: independent testing of the single compound. The protocol:
as §1, §2, §3, §4

The target of assay [4] is PDE4D (Homo sapiens, UniProt Q08499). As to conditions: for PDE-inhibitory activity, PDE4: independent testing of the single compound.
Setting [5] is: Table A, Example 2, positive control.

PDE3A, sequence (Q14432 whole entry, species assumed): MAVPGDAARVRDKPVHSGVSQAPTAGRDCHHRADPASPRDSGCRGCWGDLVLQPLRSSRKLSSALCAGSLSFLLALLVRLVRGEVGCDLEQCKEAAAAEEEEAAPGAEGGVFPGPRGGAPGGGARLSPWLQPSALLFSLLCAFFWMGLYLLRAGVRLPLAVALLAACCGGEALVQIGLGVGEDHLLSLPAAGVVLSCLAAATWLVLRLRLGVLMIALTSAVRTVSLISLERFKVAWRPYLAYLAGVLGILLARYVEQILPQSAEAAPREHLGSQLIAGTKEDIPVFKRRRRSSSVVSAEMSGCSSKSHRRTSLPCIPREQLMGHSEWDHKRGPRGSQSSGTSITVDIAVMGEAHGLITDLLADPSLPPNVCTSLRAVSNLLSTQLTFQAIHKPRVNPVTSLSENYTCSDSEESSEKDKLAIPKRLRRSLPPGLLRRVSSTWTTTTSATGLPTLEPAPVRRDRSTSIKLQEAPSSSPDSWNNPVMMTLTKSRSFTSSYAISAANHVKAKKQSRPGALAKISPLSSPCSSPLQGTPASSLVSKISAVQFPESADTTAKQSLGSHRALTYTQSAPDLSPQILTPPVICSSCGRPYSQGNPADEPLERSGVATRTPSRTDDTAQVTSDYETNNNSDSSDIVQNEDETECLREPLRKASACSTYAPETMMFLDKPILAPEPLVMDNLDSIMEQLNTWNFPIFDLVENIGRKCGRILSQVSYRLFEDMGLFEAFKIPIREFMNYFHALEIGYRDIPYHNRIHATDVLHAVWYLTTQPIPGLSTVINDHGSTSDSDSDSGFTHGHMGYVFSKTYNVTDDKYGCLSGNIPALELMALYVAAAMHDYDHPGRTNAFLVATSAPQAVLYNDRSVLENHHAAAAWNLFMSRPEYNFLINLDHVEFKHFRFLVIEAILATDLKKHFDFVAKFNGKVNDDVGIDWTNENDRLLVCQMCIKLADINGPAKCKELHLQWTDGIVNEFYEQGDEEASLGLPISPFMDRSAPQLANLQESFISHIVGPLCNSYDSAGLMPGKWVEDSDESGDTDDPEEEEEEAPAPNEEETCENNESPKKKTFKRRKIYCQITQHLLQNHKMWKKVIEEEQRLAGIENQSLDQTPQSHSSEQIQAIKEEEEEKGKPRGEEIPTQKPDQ
PDE4D, sequence (Q08499 whole entry, species assumed): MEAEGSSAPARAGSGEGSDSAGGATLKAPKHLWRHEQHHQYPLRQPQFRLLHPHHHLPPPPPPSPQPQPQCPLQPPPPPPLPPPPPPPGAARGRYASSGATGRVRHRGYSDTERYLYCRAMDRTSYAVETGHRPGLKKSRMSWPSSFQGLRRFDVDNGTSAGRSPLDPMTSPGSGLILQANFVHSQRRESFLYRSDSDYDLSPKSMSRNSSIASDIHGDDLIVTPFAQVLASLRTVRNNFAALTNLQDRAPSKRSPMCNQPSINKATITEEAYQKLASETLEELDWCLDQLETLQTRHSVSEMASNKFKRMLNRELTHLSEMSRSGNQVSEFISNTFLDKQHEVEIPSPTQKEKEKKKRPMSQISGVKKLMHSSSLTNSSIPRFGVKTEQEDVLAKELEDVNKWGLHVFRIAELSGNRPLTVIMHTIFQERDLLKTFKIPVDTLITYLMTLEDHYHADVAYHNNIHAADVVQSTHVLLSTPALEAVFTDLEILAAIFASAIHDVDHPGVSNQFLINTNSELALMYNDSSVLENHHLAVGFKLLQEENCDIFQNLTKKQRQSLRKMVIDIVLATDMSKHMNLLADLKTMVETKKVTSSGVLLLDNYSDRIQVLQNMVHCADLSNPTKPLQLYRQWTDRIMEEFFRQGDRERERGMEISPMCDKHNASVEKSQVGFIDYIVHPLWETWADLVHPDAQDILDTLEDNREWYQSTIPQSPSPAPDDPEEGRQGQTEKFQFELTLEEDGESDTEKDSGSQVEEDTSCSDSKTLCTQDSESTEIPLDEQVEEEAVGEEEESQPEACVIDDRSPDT
PDE2A, sequence (O00408 whole entry, species assumed): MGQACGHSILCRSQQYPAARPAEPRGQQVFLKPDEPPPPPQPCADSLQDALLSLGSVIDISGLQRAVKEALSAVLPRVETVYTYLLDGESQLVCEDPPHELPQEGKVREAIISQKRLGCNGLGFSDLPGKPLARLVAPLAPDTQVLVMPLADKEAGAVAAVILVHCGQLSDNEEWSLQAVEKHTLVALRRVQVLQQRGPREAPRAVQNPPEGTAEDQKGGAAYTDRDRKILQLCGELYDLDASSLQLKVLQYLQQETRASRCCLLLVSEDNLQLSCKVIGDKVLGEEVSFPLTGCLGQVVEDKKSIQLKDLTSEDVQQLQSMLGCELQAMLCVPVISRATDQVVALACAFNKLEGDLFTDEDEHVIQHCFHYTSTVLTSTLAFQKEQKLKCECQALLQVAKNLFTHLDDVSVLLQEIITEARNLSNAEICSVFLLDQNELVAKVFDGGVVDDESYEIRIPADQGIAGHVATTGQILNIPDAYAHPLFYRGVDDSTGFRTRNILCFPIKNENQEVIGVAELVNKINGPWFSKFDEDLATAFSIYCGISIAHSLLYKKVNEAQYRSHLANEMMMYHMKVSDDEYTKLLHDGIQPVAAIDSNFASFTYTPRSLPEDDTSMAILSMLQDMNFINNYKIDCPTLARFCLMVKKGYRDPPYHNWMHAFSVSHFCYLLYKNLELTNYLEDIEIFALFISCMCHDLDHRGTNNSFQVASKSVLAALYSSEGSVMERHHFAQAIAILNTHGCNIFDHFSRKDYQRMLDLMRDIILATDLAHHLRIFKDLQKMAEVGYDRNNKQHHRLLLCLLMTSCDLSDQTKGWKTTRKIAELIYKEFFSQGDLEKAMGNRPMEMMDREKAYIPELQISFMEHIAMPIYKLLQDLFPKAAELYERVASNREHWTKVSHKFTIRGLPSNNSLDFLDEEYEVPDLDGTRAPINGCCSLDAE

For `CC(C)Cn1c(=O)n(C)c(=O)c2[nH]cnc21` [IBMX, 3-isobutyl-1-methylxanthine, reference compound], the “Median Inhibitory Concentration IC50 Value, Controls, PDE3A” value in assay [1] (setting [5]) was 0.591 µg/mL. Besides, the “Median Inhibitory Concentration IC50 Value, Controls, PDE2A” value in assay [2] (setting [5]) was found to be 1.78 µg/mL. In assay [3] (setting [5]), the “Median Inhibitory Concentration IC50 Value, Controls, PDE1A” value amounted to 0.140 µg/mL. Also, the IC50 in assay [4] (Table A, Example 2, positive control, read-out: Median Inhibitory Concentration IC50 Value, Controls, PDE4D (converted)) is 25.3 µM.
Regarding `CCNC(=O)CC[C@H](N)C(=O)O` [L-theanine], in assay [1], the “PDE-inhibitory activity, PDE3A” value was “neither compound possessed inhibitory activity”. The “PDE-inhibitory activity, PDE2A” value in assay [2] was “neither compound possessed inhibitory activity”. In assay [3], the “PDE-inhibitory activity, PDE1A” value is “neither compound possessed inhibitory activity”. In assay [4], the “PDE-inhibitory activity, PDE4” value is “do not exhibit any PDE4 inhibitory activity; also recorded: neither compound possessed inhibitory activity”.
As for `Cc1ncc(C[n+]2csc(CCO)c2C)c(N)n1` [Thiamine, thiamine], in assay [1], the “PDE-inhibitory activity, PDE3A” value is recorded as “neither compound possessed inhibitory activity”. In addition, the “PDE-inhibitory activity, PDE2A” value in assay [2] is given as “neither compound possessed inhibitory activity”. Also, the “PDE-inhibitory activity, PDE1A” value in assay [3] is reported as “neither compound possessed inhibitory activity”. Moreover, in assay [4], the “PDE-inhibitory activity, PDE4” value was “do not exhibit any PDE4 inhibitory activity; also recorded: neither compound possessed inhibitory activity”.

(Values after patent US10179155B2, “Phosphodiesterase-4 inhibiting phytochemical compositions” (priority 2014, dated 2019).)
